What was measured:
Solubility in water = type: physicochemical
miniature PARADE® roses = assay: Foliar MDHJ spray, leaf senescence in potted miniature roses (Example 1); type: in vivo
Experimental: Potted miniature […]® roses were evaluated for the effect on leaf senescence of foliar spray treatment with an MDHJ formulation. […] Another group of four plants was sprayed with a formulation comprising 1.5 mM MDHJ, 0.5% TRITON® X-100, and 0.125% canola oil. The treated plants were sprayed on six occasions, on days 1, 3, 12, 29, 31, and 58, by spraying foliage to the point of drip. […] Senescence was indicated by chlorosis and necrosis affecting greater than 50% of an individual leaflet.

[1] = tested on: corn ('Kandy Korn', extra sweet) seedlings; assay: Foliar MDHJ spray, leaf senescence in corn seedlings (Example 4); type: in vivo; conditions: 6 days after treatment
Experimental: Seeds of corn (‘Kandy Korn’, extra sweet) were planted in 2-inch pots. Seedlings were germinated under 16-hour day/8-hour night greenhouse conditions. Plants were placed outdoors and received 5-6 hours of natural, direct light. Eighteen days after planting, seedlings received one of two treatments. • Treatment 1 (n=11): Foliar spray with water—control • Treatment 2 (n=12): Foliar spray of 1 mM MDHJ in water. Plant leaves from both treatments were sprayed until the point of drip and allowed to air dry before being randomly combined into the same growing tray (to provide plants from both treatments with identical growing conditions). […] Plants were observed and visible leaf senescence recorded 6 days after the single treatment. Plants were scored according to presence or absence of senescence on any leaf of the plant. […] Of the plants with senescing leaves, only one leaf per plant had senescence (10%) in the Treatment 2 group.

Yellow Dwarf roses = assay: Foliar MDHJ spray, leaf senescence in potted Yellow Dwarf roses (Example 2); type: in vivo; conditions: one foliar spray
Experimental: Potted Yellow Dwarf roses were grouped into one of four groups, and each of the groups received one treatment. One group was an untreated control (UTC), while the other three groups were treated with aqueous solutions of MDHJ that differed only in the concentration of MDHJ. There were three plants in each group. Before the trial began, naturally senescing leaves were visible on all plants; these were removed at the time that the trial began. The rose leaves received one foliar spray treatment by applying spray until the point of drip. […] Senescence was indicated by chlorosis and necrosis affecting greater than 50% of an individual leaf. After each evaluation, senescing leaves were removed. [table]

[2] = tested on: spinach seedlings, cultivar 'Merlo Nero'; assay: MDHJ spray, leaf senescence in greenhouse-grown spinach seedlings (Example 3); type: in vivo
Experimental: Greenhouse-grown spinach seedlings, cultivar ‘Merlo Nero,’ were divided into two groups, with eight plants per group. One group was left untreated, while the other group was treated with 0.5 mM MDHJ in 0.1% ethanol by spraying leaves until the point of drip. Treatments occurred on days 1, 4 and 8 of the experiment. On day 6, senescence was noted on some leaves, defined by chlorosis and/or necrosis. Senescence began at the leaf tip and spread towards the petiole. […] All leaves from each plant were then harvested and combined for each treatment. The total number of senescing leaves were counted and taken as a percentage of the total number of leaves per treatment. Senescence was indicated by chlorosis and necrosis affecting greater than 50% of an individual leaf.

plants = conditions: U.S. Patent Application Publication No. 2009/0082453; cited from earlier work
[3] = tested on: corn, rice, wheat, oat, barley, arabidopsis, sunflower, and zucchini; conditions: application to intact as well as excised plant leaves; literature; cited from earlier work

Which “solubility in water (in words)” value (Solubility in water) does the source give for `CCCCCC1C(=O)CCC1CC(=O)OC` (stereo not shown) [MDHJ, methyl dihydrojasmonate] here?
Its value is “relatively low solubility in water”.

What about the “senescing leaves (in words)” value (miniature PARADE® roses; 1.5 mM MDHJ foliar spray, sixty-five days after treatment, untreated up to 9.4% of leaflets) of the same compound?
Its value is “no senescing leaves”.

And the “% Leaflets exhibiting senescence” value (miniature PARADE® roses; individual plant, foliar spray 1.5 mM MDHJ, 0.5% TRITON X-100, 0.125% canola oil on days 1, 3, 12, 29, 31, 58, analyzed 65 days after first treatment, senescence = chlorosis and necrosis >50% of leaflet)?
Its value is 0.0%.

What about the “of the plants with senescing leaves, only one leaf per plant had senescence (percentage in brackets)” value ([1]; Treatment 2: 1 mM MDHJ in water) of the same compound?
Its value is 10%.

What about the “severity of senescence: mean % yellow per senescing leaf (leaf area)” value ([1]; Treatment 2: 1 mM MDHJ in water, water control 43%) of the same compound?
Its value is 15%.

What about the “% of plants with two senescent leaves” value ([1]; Treatment 2: single foliar spray of 1 mM MDHJ in water (n = 12), water control 27%) of the same compound?
The value was 0%.

And the “% of plants with one senescent leaf” value ([1]; Treatment 2: single foliar spray of 1 mM MDHJ in water (n = 12), water control 36%)?
The value was 25%.

What about the “% of plants with senescing leaves” value ([1]; Treatment 2: single foliar spray of 1 mM MDHJ in water (n = 12), water control 64%) of the same compound?
The value was 27%.

And the “rate of naturally senescing leaves compared to the untreated control group (in words)” value (Yellow Dwarf roses; MDHJ treatment in general (1.5, 3.0, 6.0 mM))?
Its value is “reduced the rate of naturally senescing leaves”.

What about the “Mean No. Leaves (exhibiting senescence)” value (Yellow Dwarf roses; Treatment Group 2: 1.5 mM MDHJ + 0.125% TRITON X-100 + 0.5% Canola Oil, Day 3) of the same compound?
Its value is 27.

And the “Mean No. Leaves (exhibiting senescence)” value (Yellow Dwarf roses; Treatment Group 2: 1.5 mM MDHJ + 0.125% TRITON X-100 + 0.5% Canola Oil, Day 7)?
The value was 1.

What about the “Mean No. Leaves (exhibiting senescence)” value (Yellow Dwarf roses; Treatment Group 2: 1.5 mM MDHJ + 0.125% TRITON X-100 + 0.5% Canola Oil, Day 10) of the same compound?
Its value is 5.

And the “Mean No. Leaves (exhibiting senescence)” value (Yellow Dwarf roses; Treatment Group 2: 1.5 mM MDHJ + 0.125% TRITON X-100 + 0.5% Canola Oil, Day 14)?
The value was 13.

And the “Mean No. Leaves (exhibiting senescence)” value (Yellow Dwarf roses; Treatment Group 2: 1.5 mM MDHJ + 0.125% TRITON X-100 + 0.5% Canola Oil, Day 31)?
Its value is 27.

And the “Mean No. Leaves (exhibiting senescence)” value (Yellow Dwarf roses; Treatment Group 3: 3.0 mM MDHJ + 0.125% TRITON X-100 + 0.5% Canola Oil, Day 3)?
Its value is 25.

What about the “Mean No. Leaves (exhibiting senescence)” value (Yellow Dwarf roses; Treatment Group 3: 3.0 mM MDHJ + 0.125% TRITON X-100 + 0.5% Canola Oil, Day 7) of the same compound?
The value was 1.

And the “Mean No. Leaves (exhibiting senescence)” value (Yellow Dwarf roses; Treatment Group 3: 3.0 mM MDHJ + 0.125% TRITON X-100 + 0.5% Canola Oil, Day 10)?
Its value is 4.

What about the “Mean No. Leaves (exhibiting senescence)” value (Yellow Dwarf roses; Treatment Group 3: 3.0 mM MDHJ + 0.125% TRITON X-100 + 0.5% Canola Oil, Day 14) of the same compound?
The value was 12.

And the “Mean No. Leaves (exhibiting senescence)” value (Yellow Dwarf roses; Treatment Group 3: 3.0 mM MDHJ + 0.125% TRITON X-100 + 0.5% Canola Oil, Day 31)?
The value was 25.

And the “Mean No. Leaves (exhibiting senescence)” value (Yellow Dwarf roses; Treatment Group 4: 6.0 mM MDHJ + 0.125% TRITON X-100 + 0.5% Canola Oil, Day 3)?
The value was 23.

What about the “Mean No. Leaves (exhibiting senescence)” value (Yellow Dwarf roses; Treatment Group 4: 6.0 mM MDHJ + 0.125% TRITON X-100 + 0.5% Canola Oil, Day 7) of the same compound?
Its value is 2.

And the “Mean No. Leaves (exhibiting senescence)” value (Yellow Dwarf roses; Treatment Group 4: 6.0 mM MDHJ + 0.125% TRITON X-100 + 0.5% Canola Oil, Day 10)?
The value was 5.

And the “Mean No. Leaves (exhibiting senescence)” value (Yellow Dwarf roses; Treatment Group 4: 6.0 mM MDHJ + 0.125% TRITON X-100 + 0.5% Canola Oil, Day 14)?
Its value is 12.

And the “Mean No. Leaves (exhibiting senescence)” value (Yellow Dwarf roses; Treatment Group 4: 6.0 mM MDHJ + 0.125% TRITON X-100 + 0.5% Canola Oil, Day 31)?
Its value is 23.

And the “% of Leaves Exhibiting Senescence” value ([2]; 0.5 mM MDHJ in 0.1% ethanol sprayed on days 1, 4 and 8, counted day 8, untreated 34.6%)?
Its value is 8.6%.

And the “% of Plants Exhibiting Senescence” value ([2]; 0.5 mM MDHJ in 0.1% ethanol, day 8, eight plants, untreated 87.5%)?
Its value is 37.5%.

And the “Number of Plants Exhibiting Chlorosis or Necrosis” value ([2]; 0.5 mM MDHJ in 0.1% ethanol, day 8, of 8 plants, untreated 7)?
Its value is 3.

And the “Number of Senescent Leaves” value ([2]; 0.5 mM MDHJ in 0.1% ethanol, day 8, of 93 leaves in total, untreated 36 of 104)?
The value was 8.

What about the “effect on biotic attack and disease in plants (in words)” value (plants) of the same compound?
Its value is “effective in reducing biotic attack and disease in plants”.

Which “effect on leaf senescence (in words)” value [3] does the source give for `CC/C=C\CC1C(=O)CCC1CC(=O)OC` (stereo not shown) [methyl jasmonate] here?
The value was “promotes or accelerates leaf senescence”.

Which “effect on leaf senescence (in words)” value [3] does the source give for `CC/C=C\CC1C(=O)CCC1CC(=O)O` (stereo not shown) [jasmonic acid, 2-(3-oxo-2-(pent-2-enyl)cyclopentyl)acetic acid] here?
The value was “promotes or accelerates leaf senescence”.
